The values below come from US10344060B2 (priority 2013, dated 2019).

For series [1] the following is noted: rat plasma, 37° C., incubation time 0 hr (normalization point).
Series [2] has as its system mouse saphenous nerve C-fibers.
In series [3] the target is Nav1.8 (Rattus norvegicus, UniProt Q62968). The conditions noted are these: read-out: TTX IC50; cited from earlier work.
In series [4] the target is Nav1.4 (Rattus norvegicus, UniProt P15390). The conditions noted are these: read-out: TTX IC50; cited from earlier work.
Series [5] has as its target Nav1.3 (Rattus norvegicus, UniProt P08104). The conditions noted are these: read-out: TTX IC50; cited from earlier work.
The target of series [6] is Nav1.6 (Rattus norvegicus, UniProt O88420). The conditions noted are these: read-out: TTX IC50; cited from earlier work.
The target of series [7] is Nav1.7 (Rattus norvegicus, UniProt O08562). The conditions noted are these: read-out: TTX IC50; cited from earlier work.
The test system of series [8] is male CD-1 mice. The conditions noted are these: 5.0 mg/kg s.c.
The nature of series [9]: in vivo. The conditions noted are these: male, Sprague-Dawley, rat, sc, 5 mg/kg.
Series [10] deals with TTX-sensitive Nav channels in Sprague Dawley rat DRG neuron.
Series [11] addresses hNav1.6 (Homo sapiens, UniProt Q9UQD0). Nature of the series: cell-based. Format: cell-based.
For series [12] the following is noted: mouse plasma, 37° C., incubation 0 hr (normalisation point).
Series [13] concerns male Sprague-Dawley rats. The conditions noted are these: 5.0 mg/kg s.c.
The subject of series [14] is male CD-1 mice. The conditions noted are these: for terminal exposure (peptide plasma concentration): 2 h post peptide injection.
For series [15] the following is noted: 1 mg/kg s.c.
For series [16] the following is noted: human plasma, 37° C., incubation 0 hr (normalisation point).
For series [17] the following is noted: cyno plasma, 37° C., incubation 0 hr (normalisation point).
Series [18] is described as follows: in vivo. The conditions noted are these: male, CD-1, mouse, sc.
For series [19], the target named is hNav1.4 (Homo sapiens, UniProt P35499). Kind of series: cell-based. Format: cell-based. The conditions noted are these: PX.
The subject of series [20] is male Sprague-Dawley rats. The conditions noted are these: 5.0 mg/kg s.c.; 2 h post peptide injection.
Series [21] deals with T1, hNav1.7 (Homo sapiens, UniProt Q15858). Kind of series: cell-based. Format: cell-based.
T1 sequence (Q15858 whole entry): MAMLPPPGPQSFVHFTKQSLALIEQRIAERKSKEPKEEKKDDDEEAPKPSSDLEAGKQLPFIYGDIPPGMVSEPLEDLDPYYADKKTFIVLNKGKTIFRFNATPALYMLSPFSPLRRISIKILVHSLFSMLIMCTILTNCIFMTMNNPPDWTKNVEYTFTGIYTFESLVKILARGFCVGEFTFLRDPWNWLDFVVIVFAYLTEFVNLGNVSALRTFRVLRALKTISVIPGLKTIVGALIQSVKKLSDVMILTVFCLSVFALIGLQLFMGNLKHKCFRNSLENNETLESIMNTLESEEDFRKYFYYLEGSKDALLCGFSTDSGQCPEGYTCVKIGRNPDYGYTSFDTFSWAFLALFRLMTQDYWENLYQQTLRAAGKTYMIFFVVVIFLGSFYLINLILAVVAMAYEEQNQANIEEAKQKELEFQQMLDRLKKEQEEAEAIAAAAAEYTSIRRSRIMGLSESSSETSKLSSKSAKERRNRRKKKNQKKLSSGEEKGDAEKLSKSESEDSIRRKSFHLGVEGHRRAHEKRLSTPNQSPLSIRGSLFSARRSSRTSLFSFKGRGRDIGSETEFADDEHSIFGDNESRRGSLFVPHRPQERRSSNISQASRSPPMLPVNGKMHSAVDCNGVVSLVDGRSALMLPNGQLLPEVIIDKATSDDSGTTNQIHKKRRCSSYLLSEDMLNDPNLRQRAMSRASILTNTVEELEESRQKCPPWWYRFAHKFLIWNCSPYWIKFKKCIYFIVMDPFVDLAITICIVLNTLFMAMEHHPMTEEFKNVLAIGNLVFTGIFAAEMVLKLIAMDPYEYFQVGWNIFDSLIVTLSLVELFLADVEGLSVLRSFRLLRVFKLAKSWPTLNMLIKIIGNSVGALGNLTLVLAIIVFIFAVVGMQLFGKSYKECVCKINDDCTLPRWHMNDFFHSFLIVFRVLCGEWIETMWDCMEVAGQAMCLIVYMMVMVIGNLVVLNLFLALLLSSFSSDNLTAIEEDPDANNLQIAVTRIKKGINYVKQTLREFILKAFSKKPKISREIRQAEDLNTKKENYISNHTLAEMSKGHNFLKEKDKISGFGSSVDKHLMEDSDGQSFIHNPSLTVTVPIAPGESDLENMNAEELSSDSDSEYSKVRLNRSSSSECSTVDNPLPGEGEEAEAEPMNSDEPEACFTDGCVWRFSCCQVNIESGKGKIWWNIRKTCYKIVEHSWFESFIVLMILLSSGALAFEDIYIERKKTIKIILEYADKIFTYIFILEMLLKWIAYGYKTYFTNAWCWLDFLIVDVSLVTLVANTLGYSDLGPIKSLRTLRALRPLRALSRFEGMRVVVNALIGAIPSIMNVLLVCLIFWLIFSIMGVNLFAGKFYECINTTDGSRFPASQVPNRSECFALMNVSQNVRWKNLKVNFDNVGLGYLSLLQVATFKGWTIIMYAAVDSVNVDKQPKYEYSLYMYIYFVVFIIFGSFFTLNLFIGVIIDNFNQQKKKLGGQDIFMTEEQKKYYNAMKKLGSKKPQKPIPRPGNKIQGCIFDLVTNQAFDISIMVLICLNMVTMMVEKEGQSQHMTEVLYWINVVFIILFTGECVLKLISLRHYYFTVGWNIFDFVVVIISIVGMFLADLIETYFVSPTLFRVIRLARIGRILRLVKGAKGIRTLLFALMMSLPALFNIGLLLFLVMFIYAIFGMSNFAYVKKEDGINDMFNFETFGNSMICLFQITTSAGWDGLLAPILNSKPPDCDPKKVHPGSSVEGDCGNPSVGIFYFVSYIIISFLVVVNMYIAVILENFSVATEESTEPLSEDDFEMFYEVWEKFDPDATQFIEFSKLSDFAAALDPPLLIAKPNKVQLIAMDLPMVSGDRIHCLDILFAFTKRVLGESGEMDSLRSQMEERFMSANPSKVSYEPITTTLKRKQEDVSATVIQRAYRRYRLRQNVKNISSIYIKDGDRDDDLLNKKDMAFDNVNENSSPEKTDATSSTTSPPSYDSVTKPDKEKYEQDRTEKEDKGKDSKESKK
The target in series [22] is T1, hNav1.7. Kind of series: cell-based. The conditions noted are these: Table 15; read-out: PX hNav1.7 Tonic IC50. Format: cell-based.
Series [23] deals with male CD-1 mice.
Series [24] concerns the target T1, hNav1.7. Kind of series: cell-based. The conditions noted are these: ratio of IonWorks Quattro IC50 values, Nav1.4 over Nav1.7. A general note: The patch-clamp technique gives a direct electrical read-out from membranes.
Series [25] deals with TTX-sensitive Nav channels in mouse DRG neuron.
Series [26] concerns TTX-resistant VGSCs. The conditions noted are these: cited from earlier work.
Series [27] has as its system TTX-sensitive sodium currents in adult rat DRG neurons. The conditions noted are these: cited from earlier work.
Series [28] addresses NaV1.7 (Homo sapiens, UniProt Q15858). The conditions noted are these: read-out: EC50, impairs fast inactivation; cited from earlier work.
In series [29] the test system is rats. The conditions noted are these: rat, in vivo; cited from earlier work.
Series [30] concerns rats. The conditions noted are these: rat, in vivo, 0.1 mg/kg; cited from earlier work.
The mark [31] stands for this setting: 0.1, 0.3, and 1.0 mg/kg s.c., 1-hour pre-treatment.

Entries after “also recorded” stand apart in the source; their conditions may differ. Read-outs that look alike come from different tables or passages of the source.

hNav1.6, sequence (Q9UQD0 whole entry): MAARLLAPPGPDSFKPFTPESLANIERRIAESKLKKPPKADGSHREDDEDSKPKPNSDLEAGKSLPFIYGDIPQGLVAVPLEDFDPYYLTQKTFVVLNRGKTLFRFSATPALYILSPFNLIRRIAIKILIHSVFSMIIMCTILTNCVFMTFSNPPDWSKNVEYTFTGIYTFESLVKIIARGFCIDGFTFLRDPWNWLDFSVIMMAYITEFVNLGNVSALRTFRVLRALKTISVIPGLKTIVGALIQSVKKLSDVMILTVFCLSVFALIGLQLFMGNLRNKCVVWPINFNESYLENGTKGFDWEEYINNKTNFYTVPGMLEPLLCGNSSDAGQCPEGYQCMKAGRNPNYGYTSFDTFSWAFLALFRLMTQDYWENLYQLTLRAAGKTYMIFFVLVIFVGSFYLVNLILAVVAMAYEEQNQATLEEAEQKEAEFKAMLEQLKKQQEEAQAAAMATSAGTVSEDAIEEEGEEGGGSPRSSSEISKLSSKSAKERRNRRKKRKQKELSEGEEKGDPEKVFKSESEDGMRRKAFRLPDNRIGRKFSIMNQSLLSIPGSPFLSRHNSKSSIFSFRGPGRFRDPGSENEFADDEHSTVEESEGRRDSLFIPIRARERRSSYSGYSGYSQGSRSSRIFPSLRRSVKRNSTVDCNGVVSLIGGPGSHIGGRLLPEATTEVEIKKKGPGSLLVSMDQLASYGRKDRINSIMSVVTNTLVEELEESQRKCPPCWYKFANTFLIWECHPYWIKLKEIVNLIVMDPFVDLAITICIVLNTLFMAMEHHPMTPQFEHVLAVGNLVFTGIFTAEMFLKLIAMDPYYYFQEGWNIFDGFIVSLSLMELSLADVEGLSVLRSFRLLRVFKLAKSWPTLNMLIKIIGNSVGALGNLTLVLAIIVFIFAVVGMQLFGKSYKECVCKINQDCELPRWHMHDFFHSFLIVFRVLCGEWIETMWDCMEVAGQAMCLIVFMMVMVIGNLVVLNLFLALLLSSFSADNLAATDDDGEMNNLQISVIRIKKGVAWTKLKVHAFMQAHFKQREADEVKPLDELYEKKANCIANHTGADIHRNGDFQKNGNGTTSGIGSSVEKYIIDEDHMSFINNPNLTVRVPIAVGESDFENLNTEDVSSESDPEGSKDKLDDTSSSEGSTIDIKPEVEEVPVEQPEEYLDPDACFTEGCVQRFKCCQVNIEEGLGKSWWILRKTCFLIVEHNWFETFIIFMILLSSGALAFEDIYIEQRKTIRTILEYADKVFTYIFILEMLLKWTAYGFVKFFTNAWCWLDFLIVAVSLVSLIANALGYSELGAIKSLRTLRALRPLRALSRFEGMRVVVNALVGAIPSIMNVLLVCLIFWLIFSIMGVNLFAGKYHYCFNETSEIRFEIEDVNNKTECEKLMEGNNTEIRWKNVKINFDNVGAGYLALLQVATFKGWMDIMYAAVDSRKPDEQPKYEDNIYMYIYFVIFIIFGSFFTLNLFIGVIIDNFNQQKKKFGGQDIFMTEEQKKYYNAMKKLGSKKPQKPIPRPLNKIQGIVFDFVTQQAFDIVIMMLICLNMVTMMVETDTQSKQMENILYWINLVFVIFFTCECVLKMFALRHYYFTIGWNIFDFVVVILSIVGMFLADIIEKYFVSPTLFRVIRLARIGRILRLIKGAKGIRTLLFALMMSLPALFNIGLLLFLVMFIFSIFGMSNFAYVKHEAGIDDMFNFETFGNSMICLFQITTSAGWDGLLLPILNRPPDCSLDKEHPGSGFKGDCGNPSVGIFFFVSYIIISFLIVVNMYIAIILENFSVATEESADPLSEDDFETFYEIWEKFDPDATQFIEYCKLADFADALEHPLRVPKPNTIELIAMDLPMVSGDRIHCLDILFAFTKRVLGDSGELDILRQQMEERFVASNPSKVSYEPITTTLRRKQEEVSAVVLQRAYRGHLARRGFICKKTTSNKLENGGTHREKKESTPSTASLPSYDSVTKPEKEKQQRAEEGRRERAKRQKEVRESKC
NaV1.7, sequence (Q15858 whole entry): as the sequence (Q15858 whole entry) above

As for `CC[C@H](C)[C@H](NC(=O)[C@H](CO)NC(=O)[C@H](CCCCN)NC(=O)[C@H](CCCNC(=N)N)NC(=O)[C@@H]1CSSC[C@@H]2NC(=O)[C@H](C)NC(=O)[C@H](CCCNC(=N)N)NC(=O)[C@H](CCCCN)NC(=O)[C@H](CO)NC(=O)[C@H](CC(=O)O)NC(=O)[C@@H]3CSSC[C@H](NC(=O)[C@H](CCC(=O)O)NC(=O)[C@H](CC(C)C)NC(=O)CNC(=O)[C@H](CCC(=O)O)NC(=O)[C@H](CSSC[C@H](NC(=O)[C@@H](N)Cc4ccc(O)cc4)C(=O)N[C@@H](CCC(N)=O)C(=O)N[C@@H](CCCCN)C(=O)N[C@@H](Cc4c[nH]c5ccccc45)C(=O)N[C@@H](CCSC)C(=O)N[C@@H](Cc4c[nH]c5ccccc45)C(=O)N[C@@H]([C@@H](C)O)C(=O)N3)NC2=O)C(=O)N[C@@H](CCCCN)C(=O)N[C@@H](CC(C)C)C(=O)N[C@@H](Cc2c[nH]c3ccccc23)C(=O)N1)C(N)=O` [SEQ ID NO: 138, [Glu20,Ser28]JzTx-V(1-29)], the “% Peptide Remaining” value in [1] stood at 100%.

Regarding `NC1=N[C@H](O)[C@H]2[C@H]3O[C@]4(O)O[C@@H]([C@@H](O)[C@@]2(N1)[C@@H]4O)[C@]3(O)CO` [TTX, tetrodotoxin], the “action potential firing, in words” value in series [2] is reported as “completely blocked action potential firing”. The IC50 in series [3] was over 50000 nM; in [4], 5 nM; in [5], 2 to 15 nM; in series [6], 1 nM; in [7] it was 4 nM.

With `CC[C@H](C)[C@H](NC(=O)[C@H](CCCCN)NC(=O)[C@H](CCCNC(=N)N)NC(=O)[C@@H]1CSSC[C@@H]2NC(=O)[C@H](C)NC(=O)[C@H](CCCNC(=N)N)NC(=O)[C@H](CCCCN)NC(=O)[C@H](CO)NC(=O)[C@H](CC(=O)O)NC(=O)[C@@H]3CSSC[C@H](NC(=O)[C@H](CCC(=O)O)NC(=O)[C@H](CC(C)C)NC(=O)CNC(=O)[C@H](CCC(=O)O)NC(=O)[C@H](CSSC[C@H](NC(=O)[C@@H](N)Cc4ccc(O)cc4)C(=O)N[C@@H](CCC(N)=O)C(=O)N[C@@H](CCCCN)C(=O)N[C@@H](Cc4c[nH]c5ccccc45)C(=O)N[C@@H](CCSC)C(=O)N[C@@H](Cc4c[nH]c5ccccc45)C(=O)N[C@@H]([C@@H](C)O)C(=O)N3)NC2=O)C(=O)N[C@@H](CCCCN)C(=O)N[C@@H](CC(C)C)C(=O)N[C@@H](Cc2c[nH]c3ccccc23)C(=O)N1)C(=O)N[C@@H](Cc1c[nH]c2ccccc12)C(N)=O` [compound 112], the terminal plasma exposure in series [8] (2 h post peptide injection) turned out to be 1.75 ± 0.536 µM; in series [13] (45 min post-formalin injection) it was 1.18 ± 0.156 µM; in series [23] (0.1 mg/kg s.c., 45 min post-formalin injection, mean±SEM), 0.0278 ± 0.0105 µM; in series [23] (0.3 mg/kg s.c., 45 min post-formalin injection), 0.121 ± 0.0411 µM; in series [23] (1.0 mg/kg s.c., 45 min post-formalin injection), 0.412 ± 0.0858 µM; in [23] (5.0 mg/kg s.c., 45 min post formalin injection), 2.63 ± 0.777 µM. Moreover, in series [8] (CFA thermal hyperalgesia, male CD-1 mice), the “thermal latency compared to vehicle (PBS)” value is reported as “no effect”. The level at time molar at 2 h in series [9] was 994 ± 184 nM; in series [18] (0.1 mg/kg) it was 24.8 ± 6.68 nM; in [18] (0.3 mg/kg), 121 ± 29.6 nM; in series [18] (1 mg/kg), 419 ± 226 nM. Also, the IC50 in [10] is 261 nM; in series [11] (Table 15, read-out: PX hNav1.6 Tonic IC50) it was 720 nM; in series [22] it was 1.59 nM. In addition, the 1.x/1.7 is listed as 1135 in series [10] (partially inactivated, rTTX-S / hNav1.7); 1 in series [21] (partially inactivated, hNav1.7 / hNav1.7); 1213 in series [25]; 917 in [25] (partially inactivated, mTTX-S (fresh DRG) / hNav1.7). The “selectivity for Nav1.7 over Nav1.6” value in series [11] (PatchXpress) came out at 454 fold. Moreover, the Nav1.6/Nav1.7 in series [11] (Table 15, ratio of PX tonic IC50 values) was 454. Moreover, the “% Peptide Remaining” value in series [12], in [16] and in series [17] was 100% each time. In addition, the “effect in the first or acute phase (0-5 min)” value in [13] (1-hour pre-treatment, male Sprague-Dawley rats) is “no effect”. Also, the “terminal exposure (peptide plasma concentration)” value came out at 0.0248 ± 0.00668 µM in [14] (0.1 mg/kg s.c.); 0.121 ± 0.0296 µM in [14] (0.3 mg/kg s.c.); 0.419 ± 0.226 µM in [14] (1.0 mg/kg s.c.); 4.73 ± 0.584 µM in series [14] (5.0 mg/kg s.c.); 0.994 ± 0.184 µM in series [20]. The “total basic movement component of locomotor activity” value in series [14] (setting [31]) was “No doses of peptide significantly decreased exploratory behavior”. Moreover, the “total rearing component of locomotor activity” value in series [14] (setting [31]) was “No doses of peptide significantly decreased exploratory behavior”. For the same compound, in series [14] (0.1, 0.3, or 1.0 mg/kg s.c., 1-hour pre-treatment), the “total basic movement, total fine movement, total rearing, or total time rearing” value is “no effect”. The “plasma concentration over the in vitro hNav1.7 IC50 (PX)” value in series [15] (CD-1 mice, for 3 h) is given as 26 fold. For the same compound, in [15] (mice), the tolerability entry was “tolerated”. Also, the “selectivity against hNav1.4 relative to hNav1.7” value in [19] is listed as over 1000 fold. The “block of hNav1.7 current” value in [21] (100 nM) is on record as “approximately 80%”. For the same compound, the “block of hNav1.7 current, in words” value in series [21] (100 nM) is “did not completely block Nav1.7 current; also recorded: only partial inhibition”. The “pain response relative to the vehicle, first phase” value in [23] (1 mg/kg s.c., 1-hour pre-treatment) is “may have slightly increased the pain response”. For the same compound, the “plasma concentration over the IC50 for blocking TTX-S current in mouse DRG neurons (WCPC)” value in [23] (5.0 mg/kg s.c.) is recorded as “about 10 fold”. Also, the Nav1.4/Nav1.7 in [24] came out at 178. Also, in [25] (TTX-sensitive current), the “loss in potency in mouse DRG neurons relative to the human clone of Nav1.7” value is about 1000 fold.

As for Huwentoxin-IV [HWTX-IV], in series [26], the “effect on TTX-resistant VGSCs” value is listed as “no effect”. Besides, the IC50 in series [27] is 30 nM.

As to OD1 [OD 1], in series [28], the EC50 is 4.5 nM.

Turning to “YCQKWMWTCDSERKCCEGMVCRLWCKKKLW [ProTx-II]”, the “efficacy in mechanical hyperalgesia study” value in series [29] was “not efficacious”. The tolerability result in [30] is on record as “lethal”.

By IC50 is commonly meant the concentration at which inhibition is half-maximal. For orientation: EC50 means the concentration giving half of the maximal effect.
